According to PMC10515483, “Structure–Reactivity Studies of 2-Sulfonylpyrimidines Allow Selective Protein Arylation” (Bioconjugate Chemistry, 2023):
In brackets after ≈: the same amount, converted by molar mass.

Assays:
[1] = GSH arylation rate constants (NMR; UV-vis for fast warheads); type: physicochemical; parameters: key to rate constant (k) for the reaction with GSH / k: NR = no reaction; settings: for k: Table S8, rate constants obtained at pH = 7; for k change (vs ref): ratio to rate constant of 4q, acceleration (+) or deceleration (-); for k/kref / ΔΔG≠1exp: relative to 4q; for ΔΔG≠1exp: via -RTln(k/kref); for times less reactive than 4q: GSH
Excerpt: We employed nuclear magnetic resonance (NMR) and UV–vis to quantify the reactivity of our 2-SP derivatives and other representative electrophiles (Figure 2) against cysteine. NMR allowed straightforward determination of reaction rate constants through dual monitoring of the consumption of the warhead and formation of the product by integration of their respective NMR signals (Figures S1–S3). It simultaneously provided a direct readout on reaction specificity and hydrolytic stability of the warhead. All measurements were carried out in KPi buffer in the presence of 5% d^6-dmso, which is generally well-tolerated by a wide range of proteins in in vitro studies. N-acetylcysteine methylester (NACME) and L-glutathione (GSH) are useful model cysteine nucleophiles for in vitro studies of electrophilic agents.[32] Mixing reference electrophile 2-methylsulfonylpyrimidine (4q) with NACME or GSH in a 1:10 ratio (pseudo-first-order conditions) allowed extraction of accurate and reproducible second order rate constants (k).
Figure 3 In vitro determination of electrophilic reactivity of compounds. (A) NMR assay setup for warhead/GSH reaction rate constant determination and chemoselectivity monitoring, over a 6 h time scale. Purple bead = GSH. Hydrolytic stability was determined in the same way over 36 h. d^4-Trimethylsilylpropanoate (TMSP, blue box) was used as an internal standard for monitoring the warhead solubility. Second-order reaction rate constants (k) were obtained from their pseudo-first-order counterparts (k′), by time-dependent normalized integration of the disappearing warhead signals. […] (B) Experimental second-order rate constants (y axis, log10 scale) for the reaction of representative 2-SP derivatives (left, 11 out of ca. 40 examples) and previously reported heteroarylsulfones (right) with GSH in a KPi buffer, pH 7.0, 20 °C. All rate constants were calculated as an average of at least two independent measurements. Numerical values and standard deviations at both pH 7.0 and 6.5, along with a full list of 2-SPs and other electrophile types tested, are presented in Tables S2–S6 and Figure S4. The horizontal dashed line marks the reaction rate of 2-methylsulfonylpyrimidine at pH 7.0, as a reference when comparing with other reagents (see main text).
To establish an accurate structure–reactivity profile of 2-SP reagents, we systematically determined their reaction rate constants for the arylation of GSH by NMR, at pH 7.0 and 6.5. This was a prerequisite to (i) quantify the influence of substitution on reaction rates; (ii) accurately assess the tunability and chemoselectivity of 2-SPs for cysteine arylation; (iii) determine the influence of pH on the reaction rates to further inform on the precise reaction mechanism; and (iv) benchmark the overall performance of 2-SPs with those of previously reported fast reacting heteroarylsulfones and other common cysteine reactive warheads (Figure 2C,D).

[2] = Hydrolytic stability in KPi buffer without thiol (NMR); type: physicochemical; settings: for % degradation: over 12 hours, 50 mM KPi, footnote a: crashing out of solution, no degradation product; for hydrolysis in aqueous buffer (in words): buffer in the absence of GSH
Description: NMR studies: rate constant determination and hydrolytic stability. 850 µL of 50 mM Kpi buffer solution (pH 8.2 or 7), 20 µL of the appropriate pyrimidine stock s olution (100 mM in DMSO -d6), 20 µL of TMSP stock solution (22.2 mM in DI water), 30 µL DMSO -d6, and 80 µL of GSH stock solution (0.25 M in DI water, reactivity only) were successively added/mixed at room temperature, final pH 7.0 or 6.5 (Table S1). 600 µL of this freshly prepared solution was poured into an NMR tube and immediately […]
transferred to the NMR instrument for acquisition. 1H spectra (16 scans) were recorded every 10 minutes under water suppression conditions. Following acquisition, spectra were analysed using […]
order reaction rate constants (k’).

[3] = Solubility in KPi buffer by NMR with TMSP internal standard; settings: 50 mM KPi aqueous buffer, pH 7, aqueous with cosolvent or surfactant or cyclodextrin, kinetic from dmso stock
Description: Stability and solubility assays
(§1) TopSpin. Normalised integrations of the pyrimidine aromatic 1H signals in the starting material and
(§2) product were plotted as a function of time (s), using the TMSP peak as standard for integral
(§3) calibration/normalisation and monitoring of compound solubility, allowing extraction of pseudo first
(§4) order reaction rate constants (k’). Second order rate constants (k) were back calculated from the ratio
(§5) of the pseudo first counterparts and the concentration of thiol in solution.
(§6) was confirmed by formation of a single S-arylated product (characteristic 2-alkylthioether signals),
(§7) concomitant with formation of the sulfinic acid by -product (leaving group). Hydrolytic stability
(§8) assessment was performed at pH 7.0 and pH 8.2 in a similar manner, in the absence of thiol.
(§9) Chemoselectivity. Similarly, but replacing GSH by other amino acids , reference 2-
(§10) methylsulfonylpyrimidine 4q in 50 mM KPi (pH 8.2) was incubated with 10 equivalents of either Boc-
(§11) Lys-OH, L-ser-OMe, N-Ac-Tyr-OH or Proline were used.

p53-Y220C DBD = target: T1, p53-Y220C DBD (Homo sapiens, UniProt P04637, M133L/N239Y/N268D/V203A/Y220C); test: Protein arylation by ESI mass spectrometry; type: binding
T1 construct: (residues 94-312); 6xHis/lipoyl domain/TEV protease cleavage site (N, cleaved yes); made in house; host or cells: E. coli C41
Description: In mass spectrometry experiments, we incubated 50 μM purified p53-Y220C DBD in KPi buffer at varying pH’s (6.0–8.0), temperatures (0 and 20 °C), and equivalents of 2-SPs (20–100). Representative 2-SPs were selected to span a broad reactivity range to determine whether trends observed in GSH in vitro assays translate to relative rates of modification of solvent exposed cysteines in folded proteins. […] The same could also be achieved with only 20 equiv of reagent by increasing the temperature to 20 °C, or raising the pH to 8.0. This is an important result because late-stage protein functionalization with bromo- and iodo-(hetero)aromatic motifs is challenging and inaccessible by metal-catalyzed arylation methodologies due to dehalogenation and/or off-target specificity. The introduction of an iodo-(hetero)aromatic motif on the protein surface facilitates drastically the crystal structure resolution with a sharp variation of density. […] Overall, we observed good correlation between GSH and protein experiments.
Figure 4 Biophysical and structural characterization of protein cysteine arylation by 2-SPs. […] Stoichiometry, reaction time/temperature, and pH are indicated in each case. X axis: m/z (Da). Y axis: normalized intensities as a percentage of the most intense peak. Middle: Structure of the modified Y220C mutant (green) superimposed onto the structure of the unmodified protein (gray, PDB entry 6SHZ)[40] showing the region around modified C182 (E) and C277 (F). Hydrogen bonds formed by the pyrimidine are highlighted as dashed yellow lines. 2Fo – Fc electron density maps are shown at a contour level of 1.3σ for segments of chain B including the modified residues C182 and C277. Bottom (F): Protein thermal stability (ΔTm, °C) of p53-Y220C, β-catenin ARD. and FGE, determined by DSF in the presence of 100 μM 2-SP derivatives. […]

[4] = parameters: method as in PMID 11747461; settings: cited from earlier work
[5] = pH 7
Description: Stability and solubility assays
as §1, §2, §3, §4, §5, §6, §7, §8, §9, §10, §11

p53 = tested on: p53; parameters: method as in PMID 19411067; settings: in vitro; cited from earlier work
[6] = pH 6.5, by NMR, KPi buffer, 5% DMSO-d6
[7] = pH 7.0, by NMR, KPi buffer, 5% DMSO-d6
[8] = pH 6.5, measured by UV titrations
[9] = pH 7.0, measured by UV titrations

Row | Compound | k [1] | rate constant (k) for the reaction with GSH [1, 6] | second order rate constant k with GSH ([1]; pH 7.0, KPi buffer) | rate constant (k) for the reaction with GSH [1, 7] | k change (vs ref) ([1]; pH 7.0) | % degradation ([2]; pH 8.2) [%] | solubility [3] [µM] | melting point [°C] | other results
1 | CS(=O)(=O)c1nc2ccccc2s1 [compound 9, 2-Methysulfonylbenzothiazole, reference compound] | 0.23 M⁻¹ s⁻¹ | 0.063 ± 0.023 M⁻¹ s⁻¹ | ≈ 0.23 M^–1 s^–1 | 0.23 ± 0.035 M⁻¹ s⁻¹ | +9 fold | < 5 | ≥ 2000 |  | k/kref [1]: 9.2; ΔΔG≠1exp [1]: -5.5 kJ/mol; % degradation ([2]; pH 7.0): 15%
2 | CS(=O)(=O)c1nnnn1-c1ccccc1 [compound 7, 1-phenyl 5-methylsulfonyl tetrazole, reference compound] |  |  | ≈ 4.3 M^–1 s^–1 |  | +170 fold | 8 | ≥ 2000 |  | % degradation ([2]; pH 7.0): < 5%
3 | COc1cnc(S(C)(=O)=O)nc1 [4n] |  | NR | < 5.0 × 10^–5 M^–1 s^–1 | NR |  |  |  |  | protein modification by ESI-MS (in words) (p53-Y220C DBD; 50 μM protein, all conditions tested, even after 4 h at 20 °C): could not detect any protein modification
4 | CSc1ncc([N+](=O)[O-])cn1 [2w] |  | 0.00025 ± 0.00016 M⁻¹ s⁻¹ |  | 0.0034 ± 0.0016 M⁻¹ s⁻¹ |  |  |  | 84 | 
5 | COC(=O)[C@H](CS)NC(C)=O [NACME, N-acetylcysteine methylester] |  |  |  |  |  |  |  |  | pKa of the sulfhydryl group [4]: 8.3
6 | CSc1ncc(I)cn1 [2u] |  | NR |  | NR |  |  |  | 104 | 
7 | CS(=O)(=O)c1ncc(N)cn1 [4m] |  | NR | < 5.0 × 10^–5 M^–1 s^–1 | NR |  |  |  | 138 | 
8 | 2-methylsulfonyl-1,3,4-oxadiazole 5-phenyl [compound 8, reference compound] |  |  | ≈ 160 M^–1 s^–1 |  | +6,400 fold |  |  |  | rate constant (k) for the reaction with GSH [1, 8]: 35 ± 2 M⁻¹ s⁻¹; rate constant (k) for the reaction with GSH [1, 9]: 160 ± 9.2 M⁻¹ s⁻¹; Solubility upon mixing (t0) [5]: 0.1 mM
9 | CSc1ncc(C(=O)O)cn1 [2v] |  | NR |  | NR |  |  |  | 251 | 
10 | Cc1cc(C)c(C#N)c(S(C)(=O)=O)n1 [compound 11, 4,6-dimethyl-2-(methylsulfonyl)nicotinonitrile, reference compound] |  | 0.00045 ± 5e-05 M⁻¹ s⁻¹ |  | 0.0023 ± 0.00025 M⁻¹ s⁻¹ | -11 fold |  | ≥ 2000 |  | times less reactive than 4q ([1]; pH 7.0): ca. 5 times
11 | COc1nc(OC)nc(S(C)(=O)=O)n1 [compound 19, 2,4-dimethoxy-6-(methylsulfonyl)-1,3,5-triazine] | unstable |  |  |  |  |  |  |  | hydrolysis in aqueous buffer (in words) [2]: rapid hydrolysis in aqueous buffers or by trace/ambient moisture
12 | CS(=O)(=O)c1ncc(Cl)cn1 [4s] | 0.19 M⁻¹ s⁻¹ | 0.027 ± 0.012 M⁻¹ s⁻¹ |  | 0.19 ± 0.11 M⁻¹ s⁻¹ | +8 fold | 7 | ≥ 2000 |  | k/kref [1]: 7.6; ΔΔG≠1exp [1]: -5.0 kJ/mol
13 | C=C1C(=O)C2CCN1CC2 [APR-244-MQ] |  |  |  |  |  |  |  |  | number of cysteines reacted (p53): up to nine
14 | Cc1cc(C)c([N+](=O)[O-])c(S(C)(=O)=O)n1 [compound 12, 4,6-dimethyl-2-(methylsulfonyl)-3-nitropyridine, reference compound] | 0.0028 M⁻¹ s⁻¹ | 0.00075 ± 0.00025 M⁻¹ s⁻¹ |  | 0.0028 ± 0.00025 M⁻¹ s⁻¹ | -9 fold | < 5 | ≥ 2000 |  | times less reactive than 4q ([1]; pH 7.0): ca. 5 times; k/kref [1]: 0.11; ΔΔG≠1exp [1]: 5.4 kJ/mol; % degradation ([2]; pH 7.0): < 5%
15 | CSc1ncc(-c2ccccc2)cn1 [2p] |  | NR |  | NR |  |  |  | 98 | 
16 | N[C@@H](CCC(=O)N[C@@H](CS)C(=O)NCC(=O)O)C(=O)O [GSH, L-glutathione] |  |  |  |  |  |  |  |  | pKa of the sulfhydryl group [4]: 9.2
17 | Cc1cnc(S(C)(=O)=O)nc1 [4o] | 0.0017 M⁻¹ s⁻¹ | NR |  | 0.0017 ± 0.0015 M⁻¹ s⁻¹ | -15 fold | < 5 | ≥ 2000 |  | k/kref [1]: 0.068; ΔΔG≠1exp [1]: 6.7 kJ/mol
18 | COC(=O)c1cnc(S(C)(=O)=O)nc1 [4y] | 9900 M⁻¹ s⁻¹ |  | ≈ 9900 M^–1 s^–1 |  | +396,000 fold | 100 | ≥ 2000 | 128 | k/kref [1]: 396000; ΔΔG≠1exp [1]: -32 kJ/mol; protein arylation by ESI-MS (in words) (p53-Y220C DBD; 20 equiv, pH 6.0, 0 °C): complete and clean double protein arylation; time to complete double arylation (p53-Y220C DBD; 20 equiv, pH 6.0, 0 °C): under 30 s
19 | CS(=O)(=O)c1ncc([N+](=O)[O-])cn1 [4w] |  |  |  |  | +1,880 fold |  | ~130 (≈ 26.4 µg/mL) | 113 | rate constant (k) for the reaction with GSH [1, 8]: 15 ± 0.4 M⁻¹ s⁻¹; rate constant (k) for the reaction with GSH [1, 9]: 47 ± 1 M⁻¹ s⁻¹; hydrolysis in aqueous buffer (in words) [2]: partial, slow hydrolysis
